The structures appear in SMILES notation.

The text below walks through data of patent US11524966B1 (Valo Early Discovery, Inc., priority 2017, dated 2022).

For the assay, the target named is T1, USP28 (His-tagged USP28-FL-mammalian) (Homo sapiens, UniProt Q96RU2).
T1 construct: Expression of USP28 (1-1077)-TEV-6*His (pTT5 vector); made in house; host or cells: Expi293f cells (pTT5 vector)
T1 sequence (Q96RU2 1-1077): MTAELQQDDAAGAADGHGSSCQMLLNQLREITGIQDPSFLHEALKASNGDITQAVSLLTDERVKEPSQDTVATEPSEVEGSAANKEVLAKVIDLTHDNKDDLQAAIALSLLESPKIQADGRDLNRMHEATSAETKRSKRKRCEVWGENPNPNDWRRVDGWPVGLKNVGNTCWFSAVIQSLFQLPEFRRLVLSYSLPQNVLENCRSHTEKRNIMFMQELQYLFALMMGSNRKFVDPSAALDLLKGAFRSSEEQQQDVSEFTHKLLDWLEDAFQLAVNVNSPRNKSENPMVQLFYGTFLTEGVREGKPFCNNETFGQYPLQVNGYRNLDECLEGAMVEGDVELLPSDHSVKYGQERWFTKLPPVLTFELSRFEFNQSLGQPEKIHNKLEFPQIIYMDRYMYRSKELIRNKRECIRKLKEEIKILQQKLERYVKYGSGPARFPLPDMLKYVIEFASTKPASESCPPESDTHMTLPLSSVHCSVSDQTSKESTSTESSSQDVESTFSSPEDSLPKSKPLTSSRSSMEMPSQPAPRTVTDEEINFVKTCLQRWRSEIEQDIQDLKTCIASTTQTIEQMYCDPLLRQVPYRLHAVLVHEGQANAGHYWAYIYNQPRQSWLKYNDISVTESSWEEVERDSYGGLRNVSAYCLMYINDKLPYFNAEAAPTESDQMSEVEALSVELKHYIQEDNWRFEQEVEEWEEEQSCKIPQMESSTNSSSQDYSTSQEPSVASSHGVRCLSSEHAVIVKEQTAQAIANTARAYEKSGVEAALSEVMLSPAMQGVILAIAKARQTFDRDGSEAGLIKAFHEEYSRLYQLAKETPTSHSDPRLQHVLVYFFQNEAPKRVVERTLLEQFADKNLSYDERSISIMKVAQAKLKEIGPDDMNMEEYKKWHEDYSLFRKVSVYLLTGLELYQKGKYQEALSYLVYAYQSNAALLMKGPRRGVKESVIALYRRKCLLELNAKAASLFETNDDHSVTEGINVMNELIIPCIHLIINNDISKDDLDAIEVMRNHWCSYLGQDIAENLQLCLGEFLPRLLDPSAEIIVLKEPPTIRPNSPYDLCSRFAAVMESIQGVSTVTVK
Briefly: Ubiquitin-Rhodamine 110 Assay for USP28 Activity, Example A-1(a). Format: biochemical. As to conditions: Ubiquitin-Rhodamine 110 assay, Example A-1(a); read-out: USP28 A-1(a) IC50 range. An outline of the steps:
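Full-length His-tagged USP28 (1-1077, Expi293F-expressed; […]) was preincubated 30 min with compound (25 μM–1.3 nM, 10-point 3-fold) in 20 mM Tris-HCl pH 8.0, 3 mM BME, 0.03% BGG, 0.01% Triton X-100. Ub-Rh110 (25 nM) was then added for 45 min at room temperature, stopped with citric acid, and read by fluorescence (485/535 nm).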
As for `CO[C@@H]1CN(c2ccc3c(c2F)OC[C@H](NC(=O)c2sc4nc(C)ccc4c2N)C3)C[C@H]1N` [Example 91, 3-amino-N-[(3R )-7-[(3R,4R)-3-amino-4-methoxypyrrolidin-1-yl]-8-fluoro-3,4-dihydro-2H-1-benzopyran-3-yl]-6-methylthieno[2,3-b]pyridine-2-carboxamide], the IC50 (as a rule, the concentration at which inhibition is half-maximal) fell in the range of 50 to 200 nM.

Turning to `Cc1ccc2c(N)c(C(=O)N[C@H]3COc4cc([C@H]5CCNC[C@H]5F)ccc4C3)sc2n1` [Example 82, 3-amino-N-((R)-7-((3S,4R)-3-fluoropiperidin-4-yl)chroman-3-yl)-6-methylthieno[2,3-b]pyridine-2-carboxamide], the IC50 was in the range of 1 to 50 nM.

Regarding `Cc1nc2sc(C(=O)N[C@H]3COc4cc(N5CCNCC5)ncc4C3)c(N)c2cc1F` [Example 72, (R)-3-amino-5-fluoro-6-methyl-N-(7-(piperazin-1-yl)-3,4-dihydro-2H-pyrano[3,2-c]pyridin-3-yl)thieno[2,3-b]pyridine-2-carboxamide], the IC50 lay within 1 to 50 nM.

Regarding `Cc1ccc2c(N)c(C(=O)N[C@H]3COc4cc(N5C[C@@H]6CC[C@H]5CN6)ncc4C3)sc2n1` [Example 75, N-((R)-7-((1S, 4S)-2 5-diazabicyclo[2.2.2]octan-2-yl)-3,4-dihydro-2H-pyrano[3,2-c]pyridin-3-yl)-3-amino-6-methylthieno[2,3-b]pyridine-2-carboxamide], the IC50 lay within 1 to 50 nM.

Regarding `Cc1ccc2c(N)c(C(=O)N[C@H]3COc4cc([C@@H]5CCNC[C@@H]5O)ccc4C3)sc2n1` [Example 63, 3-amino-N-((R)-7-((3R,4S)-3-hydroxypiperidin-4-yl)chroman-3-yl)-6-methylthieno[2,3-b]pyridine-2-carboxamide], the IC50 is 1 to 50 nM.

As for `Cc1nc2sc(C(=O)N[C@H]3CCc4nc(N5CCNCC5)ccc4C3)c(N)c2s1` [Example 23-9], the IC50 is 50 to 200 nM.

Take `CCc1cnc2sc(C(=O)N[C@H]3COc4cc(N5CCNCC5)ccc4C3)c(N)c2n1` [Example 36, (R)-7-amino-2-ethyl-N-(7-(piperazin-1-yl)chroman-3-yl)thieno[2,3-b]pyrazine-6-carboxamide]: the half-inhibitory concentration (IC50) lay within 200 to 2000 nM.

Take `Cc1nc2sc(C(=O)N[C@H]3COc4cc(N5CCNCC5)c(F)c(F)c4C3)c(N)c2s1` [Example 66, (R)-6-amino-N-(5,6-difluoro-7-(piperazin-1-yl)chroman-3-yl)-2-methylthieno[2,3-d]thiazole-5-carboxamide]: the IC50 lay in the range of 1 to 50 nM.

Take `Cc1ccc2c(N)c(C(=O)N[C@@H]3CCc4nc(N5CCNCC5)c(F)cc4C3)sc2n1` (single isomer, unassigned) [Example 30-2]: the half-inhibitory concentration (IC50) lay within 200 to 2000 nM.

Turning to `O=C(N[C@H]1COc2cc(N3CCNCC3)ccc2C1)c1cnc2c(ccn2C(F)F)c1` [Example 38, (R)-1-(difluoromethyl)-N-(7-(piperazin-1-yl)chroman-3-yl)-1H-pyrrolo[2,3-b]pyridine-5-carboxamide], the IC50 lay in the range of 200 to 2000 nM.

For the compound `Cc1nc2sc(C(=O)N[C@@H]3COc4cc(N5CC6CCC(C5)N6)c(F)cc4C3)c(N)c2s1` [Example 46, N-((3S)-7-(3 8-diazabicyclo[3.2.1]octan-3-yl)-6-fluorochroman-3-yl)-6-amino-2-methylthieno[2,3-d]thiazole-5-carboxamide], the IC50 was 1 to 50 nM.

In the case of `O=C(N[C@H]1COc2c(F)c(N3CC4CCC(C3)N4)cc(F)c2C1)c1cnc2c(c1)[C@@H]1C[C@@H]1CN2` [Example 89, (1aS, 7bR)-N-((3R)-7-(3 8-diazabicyclo[3.2.1]octan-3-yl)-5,8-difluorochroman-3-yl)-1a,2,3,7b-tetrahydro-1H-cyclopropa[c][1,8]naphthyridine-6-carboxamide], the IC50 was in the range of 1 to 50 nM.

For `Cc1ccc2c(N)c(C(=O)N[C@H]3CCc4nc(N5CCNCC5)ccc4C3)sc2n1` (single isomer, unassigned) [Example 23-7], the IC50 was in the range of 1 to 50 nM.

As to `CO[C@@H]1CN(c2cc(F)c3c(c2F)OC[C@H](NC(=O)c2sc4nc(C)ccc4c2N)C3)C[C@H]1N` [Example 86], the concentration for half-maximal inhibition (IC50) is 1 to 50 nM.
